Results as given in ChEMBL document CHEMBL1157605, “Hybrid molecules from xanomeline and tacrine: enhanced tacrine actions on cholinesterases and muscarinic M1 receptors” (J Med Chem, 2010).
The source made the active and inactive calls. No cut-off for these calls is given here.

Columns and labels:
[1] = target: Acetylcholinesterase (Electrophorus electricus, UniProt O42275)
Description: Inhibition of electric eel AChE by Ellman's method

[2] = target: Cholinesterase (Equus caballus, UniProt P81908)
Description: Inhibition of BChE from equine serum by Ellman's method

[3] = target: T1, Muscarinic acetylcholine receptor M1 (Homo sapiens) (UniProt P11229); details: CHO
T1 sequence (whole entry): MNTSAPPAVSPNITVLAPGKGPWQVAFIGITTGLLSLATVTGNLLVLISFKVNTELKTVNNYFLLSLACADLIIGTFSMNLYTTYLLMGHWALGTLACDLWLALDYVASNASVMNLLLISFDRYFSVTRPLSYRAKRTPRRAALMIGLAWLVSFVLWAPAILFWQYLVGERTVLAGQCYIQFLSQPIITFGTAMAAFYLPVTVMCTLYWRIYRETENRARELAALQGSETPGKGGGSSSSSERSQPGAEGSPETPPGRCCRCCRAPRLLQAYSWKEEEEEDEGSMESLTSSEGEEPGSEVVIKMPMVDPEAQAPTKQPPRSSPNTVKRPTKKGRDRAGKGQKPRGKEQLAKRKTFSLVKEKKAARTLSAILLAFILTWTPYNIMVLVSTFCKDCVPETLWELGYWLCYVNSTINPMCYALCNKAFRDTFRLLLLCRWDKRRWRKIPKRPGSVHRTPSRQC
Description: Displacement of [3H]NMS from human muscarinic M1 receptor expressed in CHO cells in ternary complex by EATCM analysis

[4] = target: T1, Muscarinic acetylcholine receptor M1 (Homo sapiens); details: CHO; remark: listed apart in the source
Description: Displacement of [3H]NMS from human muscarinic M1 receptor expressed in CHO cells in binary complex by EATCM analysis

[5] = tested on: Rattus norvegicus; test: Antiamnesic activity in Wistar rat assessed as increase in total exploration time at 2 umol/100 g body weight, ip by eight-arm radial maze cognition test; type: functional, organism-based
[6] = tested on: Rattus norvegicus; test: Antiamnesic activity against scopolamine-induced memory loss in Wistar rat assessed as increase in total exploration time at 2 umol/100 g body weight, ip by eight-arm radial maze cognition test; type: functional, organism-based

Chain of Cholinesterase (P81908 whole entry): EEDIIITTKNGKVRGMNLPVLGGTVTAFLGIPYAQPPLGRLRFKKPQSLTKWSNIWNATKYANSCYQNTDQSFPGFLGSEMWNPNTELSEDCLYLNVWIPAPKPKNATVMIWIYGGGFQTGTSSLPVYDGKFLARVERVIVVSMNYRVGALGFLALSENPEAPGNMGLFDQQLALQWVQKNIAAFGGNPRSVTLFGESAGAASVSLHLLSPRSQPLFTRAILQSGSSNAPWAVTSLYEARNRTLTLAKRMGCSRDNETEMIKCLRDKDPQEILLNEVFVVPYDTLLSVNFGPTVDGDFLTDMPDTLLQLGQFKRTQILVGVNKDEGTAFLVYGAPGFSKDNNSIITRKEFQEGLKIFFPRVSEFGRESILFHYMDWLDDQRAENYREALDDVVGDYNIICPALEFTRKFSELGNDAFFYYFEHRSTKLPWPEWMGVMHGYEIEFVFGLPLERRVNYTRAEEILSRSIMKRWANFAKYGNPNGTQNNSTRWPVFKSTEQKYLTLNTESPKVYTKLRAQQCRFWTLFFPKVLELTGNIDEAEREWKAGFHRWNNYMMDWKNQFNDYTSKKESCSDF
Chain of Acetylcholinesterase (O42275 whole entry): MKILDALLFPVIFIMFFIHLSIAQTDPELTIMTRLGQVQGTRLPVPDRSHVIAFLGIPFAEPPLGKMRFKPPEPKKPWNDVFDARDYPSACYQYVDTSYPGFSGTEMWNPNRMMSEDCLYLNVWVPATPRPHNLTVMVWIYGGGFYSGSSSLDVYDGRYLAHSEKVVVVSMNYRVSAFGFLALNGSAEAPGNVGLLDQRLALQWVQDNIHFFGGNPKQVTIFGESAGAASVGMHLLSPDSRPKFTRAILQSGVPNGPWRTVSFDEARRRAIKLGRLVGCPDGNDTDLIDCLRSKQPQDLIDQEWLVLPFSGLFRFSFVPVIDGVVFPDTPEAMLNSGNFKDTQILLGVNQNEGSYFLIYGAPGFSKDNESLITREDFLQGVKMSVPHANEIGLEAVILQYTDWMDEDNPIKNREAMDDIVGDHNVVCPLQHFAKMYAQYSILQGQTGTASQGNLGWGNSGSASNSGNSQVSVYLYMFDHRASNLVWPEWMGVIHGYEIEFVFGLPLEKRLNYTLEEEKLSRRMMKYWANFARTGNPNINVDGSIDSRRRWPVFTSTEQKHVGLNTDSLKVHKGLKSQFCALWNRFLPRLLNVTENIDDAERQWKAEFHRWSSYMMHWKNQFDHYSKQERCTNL

Structure (SMILES): CN1CCC=C(c2nsnc2OCCCOCC(=O)NCCCNc2c3c(nc4ccccc24)CCCC3)C1
- IC50 [1]: 14.8 nM
- IC50 [2]: 9.77 nM
- logKd [3]: 7.87
- logKd [4]: 8.1

Structure (SMILES): CN1CCC=C(c2nsnc2OCCCOCCCC(=O)NCCCCNc2c3c(nc4ccccc24)CCCC3)C1
- IC50 [2]: 6.76 nM

Structure (SMILES): CN1CCC=C(c2nsnc2OCCCOCC(=O)NCCCCNc2c3c(nc4ccccc24)CCCC3)C1
- IC50 [1]: 12 nM
- IC50 [2]: 10.7 nM

Structure (SMILES): CN1CCC=C(c2nsnc2OCCCOCCC(=O)NCCCCCCCCNc2c3c(nc4ccccc24)CCCC3)C1
- IC50 [1]: 22.9 nM
- IC50 [2]: 13.2 nM
- logKd [3]: 6.7
- logKd [4]: 7.57

Structure (SMILES): CN1CCC=C(c2nsnc2OCCCOCCC(=O)NCCCCNc2c3c(nc4ccccc24)CCCC3)C1
- IC50 [1]: 10.7 nM
- IC50 [2]: 9.12 nM

Structure (SMILES): CN1CCC=C(c2nsnc2OCCCCNCCCCNc2c3c(nc4ccccc24)CCCC3)C1
- IC50 [1]: 43.7 nM
- IC50 [2]: 16.2 nM
- logKd [3]: 7.49
- logKd [4]: 8.13

Structure (SMILES): CN1CCC=C(c2nsnc2OCCCOCCCCC(=O)NCCCCNc2c3c(nc4ccccc24)CCCC3)C1
- IC50 [1]: 8.71 nM
- IC50 [2]: 5.89 nM

Structure (SMILES): CN1CCC=C(c2nsnc2OCCCOCC(=O)NCCCCCCCCNc2c3c(nc4ccccc24)CCCC3)C1
- Activity [5]: Active
- Activity [6]: Active
- IC50 [1]: 6.61 nM
- IC50 [2]: 5.13 nM
- logKd [3]: 6.35
- logKd [4]: 6.88

Structure (SMILES): CN1CCC=C(c2nsnc2OCCCOCCC(=O)NCCCNc2c3c(nc4ccccc24)CCCC3)C1
- IC50 [1]: 13.5 nM
- IC50 [2]: 10.7 nM
- logKd [3]: 8.03
- logKd [4]: 8.09

Structure (SMILES): CN1CCC=C(c2nsnc2OCCCOCCCC(=O)NCCCNc2c3c(nc4ccccc24)CCCC3)C1
- IC50 [1]: 10.7 nM
- IC50 [2]: 10 nM

Structure (SMILES): CN1CCC=C(c2nsnc2OCCCOCCCCC(=O)NCCCCCCCCNc2c3c(nc4ccccc24)CCCC3)C1
- IC50 [1]: 6.17 nM
- IC50 [2]: 5.89 nM

Structure (SMILES): CN1CCC=C(c2nsnc2OCCCCNCCCCCNc2c3c(nc4ccccc24)CCCC3)C1
- IC50 [1]: 21.9 nM
- IC50 [2]: 12.3 nM

Structure (SMILES): CN1CCC=C(c2nsnc2OCCCOCCCC(=O)NCCCCCCCCNc2c3c(nc4ccccc24)CCCC3)C1
- IC50 [1]: 6.46 nM
- IC50 [2]: 5.01 nM
- logKd [3]: 7.06
- logKd [4]: 7.38

Structure (SMILES): CN1CCC=C(c2nsnc2OCCCOCCCCC(=O)NCCCNc2c3c(nc4ccccc24)CCCC3)C1
- IC50 [1]: 10.2 nM
- IC50 [2]: 8.91 nM

Structure (SMILES): CN1CCC=C(c2nsnc2OCCCCNCCCCCCCCNc2c3c(nc4ccccc24)CCCC3)C1
- IC50 [1]: 26.3 nM
- IC50 [2]: 13.5 nM

Structure (SMILES): CN1CCC=C(c2nsnc2OCCCCNCCCNc2c3c(nc4ccccc24)CCCC3)C1
- IC50 [1]: 63.1 nM
- IC50 [2]: 28.8 nM

Structure (SMILES): CCCCCCOc1nsnc1C1=CCCN(C)C1
- logKd [3]: 4.94
- logKd [4]: 7.4
